From ChEMBL document CHEMBL5532756, “Phenylthiazoles with potent & optimum selectivity toward Clostridium difficile” (RSC Med Chem, 2024)
In brackets after ≈: the same amount, converted by molar mass.

Columns and labels:
Clostridioides difficile [1] = assay: Antimicrobial activity against Clostridioides difficile ATCC BAA-1870; assay type: functional
Escherichia coli [2] = assay: Antimicrobial activity against Escherichia coli JW55031 harboring TolC mutant; assay type: functional
Escherichia coli [3] = assay: Antimicrobial activity against Escherichia coli BW25113; assay type: functional
Neisseria gonorrhoeae = assay: Antimicrobial activity against Neisseria gonorrhoeae 194; assay type: functional
Staphylococcus aureus = assay: Antimicrobial activity against methicillin-resistant Staphylococcus aureus USA300; assay type: functional
Candida albicans = assay: Antimicrobial activity against Candida albicans ATCC 64124; assay type: functional
Bacteroides fragilis [4] = assay: Antibacterial activity against Bacteroides fragilis HM-709; assay type: functional
[5] = Cytotoxicity against African green monkey Vero cells assessed as cell viability at 0.5 to 64 ug/ml relative to control; assay type: toxicity, cell-based; details: chlorocebus sabaeus, at 0.5 to 64 µg/mL, dose 0.5-64 µg/ml, read-out: Activity
Bacteroides fragilis [6] = assay: Antibacterial activity against Bacteroides fragilis HM-714; assay type: functional
Lacticaseibacillus casei = assay: Antibacterial activity against Lactobacillus casei ATCC 334; assay type: functional
Clostridioides difficile [7] = assay: Antibacterial activity against Clostridioides difficile I 11; assay type: functional
Clostridioides difficile [8] = assay: Antibacterial activity against Clostridioides difficile I 13; assay type: functional
Bifidobacterium breve [9] = assay: Antibacterial activity against Bifidobacterium breve HM-1120; assay type: functional
Bifidobacterium breve [10] = assay: Antibacterial activity against Bifidobacterium breve HM-411; assay type: functional
HRT-18 cell line = assay: Cytotoxicity against human HRT-18 cell line assessed as cell viability upto 64 ug/ml; assay type: toxicity, cell-based; details: dose < 64 µg/ml
Phocaeicola dorei = assay: Antibacterial activity against Bacteroides dorei HM-719; assay type: functional
Clostridioides difficile [11] = assay: Antibacterial activity against Clostridioides difficile P7; assay type: functional
Clostridioides difficile [12] = assay: Antibacterial activity against Clostridioides difficile ATCC 43598; assay type: functional
Lactobacillus gasseri = assay: Antibacterial activity against Lactobacillus gasseri HM-400; assay type: functional
Lactobacillus crispatus = assay: Antibacterial activity against Lactobacillus crispatus HM-420; assay type: functional
[13] = Antibacterial activity against Bifidobacterium longum subsp. Longum HM-845; assay type: functional

Structure (SMILES)	MIC (Clostridioides difficile [1]) [µg/mL]	MIC (Escherichia coli [2]) [µg/mL]	MIC (Escherichia coli [3]) [µg/mL]	MIC (Neisseria gonorrhoeae) [µg/mL]	MIC (Staphylococcus aureus) [µg/mL]	MIC (Candida albicans) [µg/mL]	further results
Cc1nc(-c2ccc3ccccc3c2)sc1-c1ccnc(N2CCC[C@@H]2C(N)=O)n1	64 (≈ 154 µM)	64 (≈ 154 µM)	> 64	> 64	> 64	> 64	–
Cc1nc(-c2ccc3ccccc3c2)sc1-c1ccnc(NCCO)n1	64 (≈ 177 µM)	> 64	> 64	> 64	> 64	1 (≈ 2.76 µM)	–
Cc1nc(-c2ccc3ccccc3c2)sc1-c1ccnc(NC[C@H](O)CO)n1	64 (≈ 163 µM)	> 64	> 64	> 64	> 64	> 64	–
Cc1nc(-c2ccc3ccccc3c2)sc1-c1ccnc(N2CCC[C@H]2CO)n1	64 (≈ 159 µM)	> 64	> 64	> 64	> 64	> 64	–
Cc1nc(-c2ccc3ccccc3c2)sc1-c1ccnc(N2CCC(N)C2)n1 (stereo unspecified)	16 (≈ 41.3 µM)	> 64	> 64	> 64	8 (≈ 20.6 µM)	8 (≈ 20.6 µM)	–
Cc1nc(-c2ccc3ccccc3c2)sc1-c1ccnc(NCCCN)n1	64 (≈ 170 µM)	> 64	> 64	> 64	> 64	> 64	–
Cc1nc(-c2ccc3ccccc3c2)sc1-c1ccnc(NCCCO)n1	64 (≈ 170 µM)	> 64	> 64	> 64	> 64	> 64	–
Cc1nc(-c2ccc3ccccc3c2)sc1-c1ccnc(NC[C@@H](O)CO)n1	64 (≈ 163 µM)	> 64	> 64	> 64	> 64	> 64	–
Cc1nc(-c2ccc3ccccc3c2)sc1-c1ccnc(NC(CO)CO)n1	64 (≈ 163 µM)	> 64	> 64	64 (≈ 163 µM)	> 64	> 64	–
Cc1nc(-c2ccc3ccccc3c2)sc1-c1ccnc(N2CC[C@@H](N(C)C)C2)n1	64 (≈ 154 µM)	> 64	64 (≈ 154 µM)	> 64	32 (≈ 77 µM)	64 (≈ 154 µM)	–
Cc1nc(-c2ccc3ccccc3c2)sc1-c1ccnc(N2CCC[C@@H]2CO)n1	64 (≈ 159 µM)	> 64	> 64	32 (≈ 79.5 µM)	> 64	> 64	–
Cc1nc(-c2ccc3ccccc3c2)sc1-c1ccnc(N[C@H]2CC[C@H](N)CC2)n1	32 (≈ 77 µM)	> 64	> 64	> 64	8 (≈ 19.3 µM)	16 (≈ 38.5 µM)	–
Cc1nc(-c2ccc3ccccc3c2)sc1-c1ccnc(NCC(=N)N)n1	32 (≈ 85.5 µM)	> 64	> 64	> 64	> 64	> 64	–
Cc1nc(-c2ccc3ccccc3c2)sc1-c1ccnc(N2CCC[C@H]2C(N)=O)n1	64 (≈ 154 µM)	> 64	> 64	> 64	> 64	> 64	–
Cc1nc(-c2ccc3ccccc3c2)sc1-c1ccnc(-c2ccncc2)n1	> 64	> 64	> 64	> 64	> 64	> 64	–
Cc1nc(-c2ccc3ccccc3c2)sc1-c1ccnc(-c2ccccn2)n1	0.03 (≈ 0.0788 µM)	> 64	> 64	> 64	> 64	> 64	MIC (Bacteroides fragilis [4]): > 64 µg/mL; viability [5]: 100%; MIC (Bacteroides fragilis [6]): > 64 µg/mL; MIC (Lacticaseibacillus casei): > 64 µg/mL; MIC (Clostridioides difficile [7]): 0.03 µg/mL (≈ 0.0788 µM); MIC (Clostridioides difficile [8]): 0.06 µg/mL (≈ 0.158 µM); MIC (Bifidobacterium breve [9]): > 64 µg/mL; MIC (Bifidobacterium breve [10]): > 64 µg/mL; Activity (HRT-18 cell line): Non-Toxic; MIC (Phocaeicola dorei): > 64 µg/mL; MIC (Clostridioides difficile [11]): 0.125 µg/mL (≈ 0.329 µM); MIC (Clostridioides difficile [12]): 0.125 µg/mL (≈ 0.329 µM); MIC (Lactobacillus gasseri): > 64 µg/mL; MIC (Lactobacillus crispatus): > 64 µg/mL; MIC [13]: > 64 µg/mL
Cc1nc(-c2ccc3ccccc3c2)sc1-c1ccnc(N2CC[C@H](N(C)C)C2)n1	32 (≈ 77 µM)	> 64	> 64	> 64	32 (≈ 77 µM)	32 (≈ 77 µM)	–
Cc1nc(-c2ccc3ccccc3c2)sc1-c1ccnc(N2CCCCC2CN)n1 (stereo unspecified)	64 (≈ 154 µM)	> 64	> 64	> 64	> 64	16 (≈ 38.5 µM)	–
Cc1nc(-c2ccc3ccccc3c2)sc1-c1ccnc(-c2cccnc2)n1	> 64	> 64	> 64	> 64	> 64	> 64	–
Cc1nc(-c2ccc3ccccc3c2)sc1-c1ccnc(NCCN(C)C)n1	16 (≈ 41.1 µM)	16 (≈ 41.1 µM)	> 64	> 64	16 (≈ 41.1 µM)	16 (≈ 41.1 µM)	–
Cc1nc(-c2ccc3ccccc3c2)sc1-c1ccnc(NCC(O)CO)n1 (racemic)	8 (≈ 20.4 µM)	> 64	> 64	64 (≈ 163 µM)	> 64	> 64	–
Cc1nc(-c2ccc3ccccc3c2)sc1-c1ccnc(N[C@@H]2CCCC[C@@H]2N)n1 (relative stereo)	8 (≈ 19.3 µM)	8 (≈ 19.3 µM)	> 64	32 (≈ 77 µM)	4 (≈ 9.63 µM)	8 (≈ 19.3 µM)	–
Cc1nc(-c2ccc3ccccc3c2)sc1-c1ccnc(N[C@@H]2CCCC[C@H]2N)n1 (relative stereo)	16 (≈ 38.5 µM)	8 (≈ 19.3 µM)	> 64	64 (≈ 154 µM)	4 (≈ 9.63 µM)	8 (≈ 19.3 µM)	–
Cc1ncc([N+](=O)[O-])n1CCO [METRONIDAZOLE]	0.25 (≈ 1.46 µM)	–	–	–	–	–	MIC (Bacteroides fragilis [4]): 1 µg/mL (≈ 5.84 µM); MIC (Bacteroides fragilis [6]): 1 µg/mL (≈ 5.84 µM); MIC (Lacticaseibacillus casei): > 8 µg/mL; MIC (Clostridioides difficile [7]): 0.5 µg/mL (≈ 2.92 µM); MIC (Clostridioides difficile [8]): 0.25 µg/mL (≈ 1.46 µM); MIC (Bifidobacterium breve [9]): > 8 µg/mL; MIC (Bifidobacterium breve [10]): > 8 µg/mL; MIC (Phocaeicola dorei): 0.25 µg/mL (≈ 1.46 µM); MIC (Clostridioides difficile [11]): 0.25 µg/mL (≈ 1.46 µM); MIC (Clostridioides difficile [12]): 0.25 µg/mL (≈ 1.46 µM); MIC (Lactobacillus gasseri): > 8 µg/mL; MIC (Lactobacillus crispatus): > 8 µg/mL; MIC [13]: 0.5 µg/mL (≈ 2.92 µM)
CN[C@H](CC(C)C)C(=O)N[C@H]1C(=O)N[C@@H](CC(N)=O)C(=O)N[C@H]2C(=O)N[C@H]3C(=O)N[C@H](C(=O)N[C@H](C(=O)O)c4cc(O)cc(O)c4-c4cc3ccc4O)[C@H](O)c3ccc(c(Cl)c3)Oc3cc2cc(c3O[C@@H]2O[C@H](CO)[C@@H](O)[C@H](O)[C@H]2O[C@H]2C[C@](C)(N)[C@H](O)[C@H](C)O2)Oc2ccc(cc2Cl)[C@H]1O [VANCOMYCIN]	1 (≈ 0.69 µM)	–	–	–	–	–	MIC (Bacteroides fragilis [4]): 8 µg/mL (≈ 5.52 µM); MIC (Bacteroides fragilis [6]): 8 µg/mL (≈ 5.52 µM); MIC (Lacticaseibacillus casei): > 8 µg/mL; MIC (Clostridioides difficile [7]): 0.5 µg/mL (≈ 0.345 µM); MIC (Clostridioides difficile [8]): 0.5 µg/mL (≈ 0.345 µM); MIC (Bifidobacterium breve [9]): 0.25 µg/mL (≈ 0.173 µM); MIC (Bifidobacterium breve [10]): 0.25 µg/mL (≈ 0.173 µM); MIC (Phocaeicola dorei): 8 µg/mL (≈ 5.52 µM); MIC (Clostridioides difficile [11]): 0.5 µg/mL (≈ 0.345 µM); MIC (Clostridioides difficile [12]): 0.5 µg/mL (≈ 0.345 µM); MIC (Lactobacillus gasseri): > 8 µg/mL; MIC (Lactobacillus crispatus): 0.5 µg/mL (≈ 0.345 µM); MIC [13]: 0.125 µg/mL (≈ 0.0863 µM)
